This note sets out measurements from US6331555A, “Treatment of platelet derived growth factor related disorders such as cancers” (priority 1999, dated 2001).

The target in one assay is T1, FLK-1 (Mus musculus, UniProt P35918).
T1 construct: expressed in transfected cells; host or cells: NIH3T3 mouse fibroblasts, retroviral vector
Briefly: Receptor tyrosine kinase inhibition, FLK-1. The format is cell-based. The gist of the method: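 For ELISA, cells kept overnight in 0.5% serum were switched to serum-free medium, given compound for 2 h at 37 °C, then ligand-stimulated for 5–10 min. Lysates were captured on receptor-specific antibody plates and probed with anti-phosphotyrosine antibody. For western blots, cells in 1% FBS received ligand for 7 min at room temperature before anti-phosphotyrosine immunoblotting.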

The subject of a further assay is PDGFR. Briefly: Receptor tyrosine kinase inhibition, PDGFR. In kind it is cell-based. As to conditions: for pIC50: W = done in Western assay, read-out: PDGFR IC50 (W). The gist of the method:
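Serum-starved cells treated with test compound for 2 hr at 37° C, then receptor phosphotyrosine measured by ELISA with anti-phosphotyrosine antibody and goat anti-rabbit IgG. Western blots used 7 min ligand stimulation at room temperature, vanadate-containing lysis and anti-phosphotyrosine immunodetection with ECL.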

[1] abbreviates: W = done in Western assay, read-out: FLK-1 IC50 (W).

The structures appear in SMILES notation. pIC50: −log10 of the molar value. Read-outs that look alike come from different tables or passages of the source.

T1 sequence (P35918 20-1345): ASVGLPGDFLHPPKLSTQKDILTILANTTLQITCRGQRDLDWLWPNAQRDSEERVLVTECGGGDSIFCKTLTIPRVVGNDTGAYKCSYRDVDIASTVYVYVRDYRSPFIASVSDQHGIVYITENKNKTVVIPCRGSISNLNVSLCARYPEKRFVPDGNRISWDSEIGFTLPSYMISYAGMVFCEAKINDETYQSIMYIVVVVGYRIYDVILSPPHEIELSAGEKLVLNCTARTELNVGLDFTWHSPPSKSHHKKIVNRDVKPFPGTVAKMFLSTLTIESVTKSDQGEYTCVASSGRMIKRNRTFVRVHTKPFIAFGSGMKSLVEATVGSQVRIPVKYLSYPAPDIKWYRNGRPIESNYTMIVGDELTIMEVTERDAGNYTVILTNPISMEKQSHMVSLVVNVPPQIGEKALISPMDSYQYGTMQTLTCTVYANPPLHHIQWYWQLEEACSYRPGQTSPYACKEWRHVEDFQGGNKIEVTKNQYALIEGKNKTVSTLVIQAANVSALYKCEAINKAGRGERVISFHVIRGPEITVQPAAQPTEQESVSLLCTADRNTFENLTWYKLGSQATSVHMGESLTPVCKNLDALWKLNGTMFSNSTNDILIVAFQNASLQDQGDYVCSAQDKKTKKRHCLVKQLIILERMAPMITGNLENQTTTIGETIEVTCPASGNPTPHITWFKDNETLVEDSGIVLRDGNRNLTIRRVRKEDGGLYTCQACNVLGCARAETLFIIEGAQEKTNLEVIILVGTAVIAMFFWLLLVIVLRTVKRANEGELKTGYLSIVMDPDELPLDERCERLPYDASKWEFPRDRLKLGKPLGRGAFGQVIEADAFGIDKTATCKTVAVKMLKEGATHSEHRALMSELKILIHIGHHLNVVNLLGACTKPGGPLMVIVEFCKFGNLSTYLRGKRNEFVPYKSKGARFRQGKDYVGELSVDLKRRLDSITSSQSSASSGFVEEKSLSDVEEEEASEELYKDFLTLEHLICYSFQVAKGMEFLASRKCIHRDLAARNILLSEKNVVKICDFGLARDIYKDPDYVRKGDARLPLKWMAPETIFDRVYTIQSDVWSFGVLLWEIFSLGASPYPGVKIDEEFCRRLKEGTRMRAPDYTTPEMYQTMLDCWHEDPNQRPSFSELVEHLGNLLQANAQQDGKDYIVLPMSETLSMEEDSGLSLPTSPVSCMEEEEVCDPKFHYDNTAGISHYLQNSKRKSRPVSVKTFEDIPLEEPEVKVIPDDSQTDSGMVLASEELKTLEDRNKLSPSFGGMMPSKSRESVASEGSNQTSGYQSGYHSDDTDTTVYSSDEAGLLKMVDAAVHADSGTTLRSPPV

As usually defined, the pIC50 is the IC50 on a negative log10 scale, so that one unit is a factor of ten. As to `N#CC(=Cc1c[nH]c2ccccc12)C(N)=S` [Compound D11], the pIC50 at FLK-1 (read-out: FLK-1 IC50) is less than 4.30; in the assay with PDGFR, 5.10.
Consider `N#CC(=Cc1c[nH]c2ccccc12)c1[nH]nc(N)c1C#N` [Compound D14], for which the negative-log IC50 (pIC50) on FLK-1 (read-out: FLK-1 IC50) was less than 4.30. In the assay with PDGFR, the “PDGF-R phosphorylation” value is on record as “inhibit PDGF-R phosphorylation”.
As for `CN(C)CCCn1cc(C=C(C#N)c2[nH]nc(N)c2C#N)c2ccccc21` [Compound D15], the pIC50 on FLK-1 (read-out: FLK-1 IC50) was less than 4.30; in the assay on PDGFR, 4.72.
As to `O=c1c2ccccc2nc(C=Cc2ccc(O)c(O)c2)n1CCO` [Compound F10], the figures for the pIC50 on FLK-1 (read-out: FLK-1 IC50) and in the assay on PDGFR were less than 4.30 and 5.30, respectively.
For the compound `Cc1cc2ncc(-c3ccccc3)nc2cc1C` [Compound G13], at FLK-1 (setting [1]), the negative-log IC50 (pIC50) was less than 5.00. Besides, the “PDGF-R phosphorylation” value in the assay with PDGFR was “inhibit PDGF-R phosphorylation”.
Take `COc1cc2ncc(-c3ccccc3)nc2cc1OC` [Compound G14]: at FLK-1 (setting [1]), the negative-log IC50 (pIC50) was less than 4.52. Further, in the assay on PDGFR, the “PDGF-R phosphorylation” value is “inhibit PDGF-R phosphorylation” and the pIC50 is 6.10.
`Cc1cc2nc(-c3ccccc3)c(=O)[nH]c2cc1C` [Compound G18]: in the assay with PDGFR, the negative-log IC50 (pIC50) was 5.00.
